Experimental data taken from patent US8758816B2, “Compositions comprising azelastine and methods of use thereof” (priority 2004, dated 2014).

Test system: patients with seasonal allergic rhinitis (SAR)
Assay: MP 428 two-week randomized double-blind study: Total Nasal Symptom Score (TNSS), change from baseline
Format: in vivo, human
Parameters: key to Change from Baseline in AM TNSS, Mean / Change from Baseline in AM TNSS, LS Mean / Change from Baseline in AM TNSS, Median: TNSS sum of 4 symptoms each 0-3 (0=none, 3=severe); change from baseline
Protocol: A two-week, randomized, double-blind study, which evaluated the effects of the co-administration of ASTELIN® (azelastine hydrochloride (HCl)) and FLONASE® (fluticasone propionate) compared to either product alone in patients with seasonal allergic rhinitis (SAR) was conducted during the 2006 Texas mountain cedar season. After a 5-day placebo lead-in period, 151 patients with moderate-to-severe allergic rhinitis symptoms were randomized to either: (1) (49 total patients) ASTELIN® (azelastine hydrochloride (HCl)) plus placebo saline nasal spray 2 sprays per nostril, 15 minutes apart, twice daily (AM & PM); (2) (50 total patients) FLONASE® (fluticasone propionate) plus placebo saline nasal spray, 2 sprays per nostril, 15 minutes apart, once daily (AM) and two sessions of placebo saline nasal spray, 2 sprays per nostril, 15 minutes apart (PM); or (3) (52 total patients) the co-administration of ASTELIN® (azelastine hydrochloride (HCl)) 2 sprays per nostril plus FLONASE® (fluticasone propionate) 2 sprays per nostril (AM), 15 minutes apart, and ASTELIN® (azelastine hydrochloride (HCl)) 2 sprays per nostril plus placebo saline nasal spray, 15 minutes apart, (PM) for a 2-week double-blind treatment period.
The primary efficacy variable was the change from baseline in the Total Nasal Symptom Score (TNSS), which comprised sneezing, itchy nose, runny nose, and nasal congestion (individual symptoms scores were assigned a value between 0 and 3, where 0=no symptoms and 3=severe symptoms). This study was not statistically designed to assess the differences between ASTELIN® and FLONASE®.

[1] = Day 5, Intent-to-Treat Population
[2] = Day 6, Intent-to-Treat Population
[3] = Day 7, Intent-to-Treat Population
[4] = Day 8, Intent-to-Treat Population
[5] = Day 9, Intent-to-Treat Population

SMILES: CCC(=O)O[C@]1(C(=O)SCF)[C@H](C)C[C@H]2[C@@H]3C[C@H](F)C4=CC(=O)C=C[C@]4(C)[C@@]3(F)[C@@H](O)C[C@@]21C [Fluticasone, fluticasone propionate]
- Percent Change from Baseline in AM and PM Combined TNSS, Mean [1]: −26.89%
- Percent Change from Baseline in AM and PM Combined TNSS, Median [1]: −22.77%
- Percent Change from Baseline in PM TNSS, LS Mean [1]: −27.51%
- Percent Change from Baseline in PM TNSS, Mean [1]: −27.06%
- Percent Change from Baseline in PM TNSS, Median [1]: −22.22%
- Change from Baseline in AM and PM Combined TNSS, LS Mean (Day 5, Intent-to-Treat Population, ANCOVA model): −5.20
- Change from Baseline in AM and PM Combined TNSS, LS Mean (Day 5, Per-Protocol Population): −5.23
- Change from Baseline in AM and PM Combined TNSS, Mean (Day 5, Per-Protocol Population): −5.23
- Change from Baseline in AM and PM Combined TNSS, Median (Day 5, Per-Protocol Population): −4.40
- Percent Change from Baseline in AM and PM Combined TNSS, LS Mean (Day 5, Per-Protocol Population): −27.42%
- Percent Change from Baseline in AM and PM Combined TNSS, Mean (Day 5, Per-Protocol Population): −27.16%
- Percent Change from Baseline in AM and PM Combined TNSS, Median (Day 5, Per-Protocol Population): −22.77%
- Change from Baseline in AM TNSS, LS Mean [2]: −2.59
- Change from Baseline in AM TNSS, Mean [2]: −2.57
- Change from Baseline in AM TNSS, Median [2]: −2.20
- Change from Baseline in AM and PM Combined TNSS, Mean [2]: −5.10
- Change from Baseline in AM and PM Combined TNSS, Median [2]: −4.45
- Change from Baseline in PM TNSS, LS Mean [2]: −2.53
- Change from Baseline in PM TNSS, Mean [2]: −2.53
- Change from Baseline in PM TNSS, Median [2]: −2.00
- Percent Change from Baseline in AM TNSS, LS Mean [2]: −27.42%
- Percent Change from Baseline in AM TNSS, Mean [2]: −27.12%
- Percent Change from Baseline in AM TNSS, Median [2]: −23.81%
- Percent Change from Baseline in AM and PM Combined TNSS, LS Mean [2]: −27.15%
- Percent Change from Baseline in AM and PM Combined TNSS, Mean [2]: −26.90%
- Percent Change from Baseline in AM and PM Combined TNSS, Median [2]: −22.20%
- Percent Change from Baseline in PM TNSS, LS Mean [2]: −26.81%
- Percent Change from Baseline in PM TNSS, Mean [2]: −26.62%
- Percent Change from Baseline in PM TNSS, Median [2]: −22.22%
- Change from Baseline in AM and PM Combined TNSS, LS Mean (Day 6, Intent-to-Treat Population, ANCOVA model): −5.12
- Change from Baseline in AM and PM Combined TNSS, LS Mean (Day 6, Per-Protocol Population): −5.11
- Change from Baseline in AM and PM Combined TNSS, Mean (Day 6, Per-Protocol Population): −5.12
- Change from Baseline in AM and PM Combined TNSS, Median (Day 6, Per-Protocol Population): −4.45
- Percent Change from Baseline in AM and PM Combined TNSS, LS Mean (Day 6, Per-Protocol Population): −27.15%
- Percent Change from Baseline in AM and PM Combined TNSS, Mean (Day 6, Per-Protocol Population): −26.95%
- Percent Change from Baseline in AM and PM Combined TNSS, Median (Day 6, Per-Protocol Population): −22.20%
- Change from Baseline in AM TNSS, LS Mean [3]: −2.55
- Change from Baseline in AM TNSS, Mean [3]: −2.57
- Change from Baseline in AM TNSS, Median [3]: −2.00
- Change from Baseline in AM and PM Combined TNSS, Mean [3]: −5.02
- Change from Baseline in AM and PM Combined TNSS, Median [3]: −5.00
- Change from Baseline in PM TNSS, LS Mean [3]: −2.50
- Change from Baseline in PM TNSS, Mean [3]: −2.45
- Change from Baseline in PM TNSS, Median [3]: −2.00
- Percent Change from Baseline in AM TNSS, LS Mean [3]: −26.16%
- Percent Change from Baseline in AM TNSS, Mean [3]: −26.29%
- Percent Change from Baseline in AM TNSS, Median [3]: −22.22%
- Percent Change from Baseline in AM and PM Combined TNSS, LS Mean [3]: −26.00%
- Percent Change from Baseline in AM and PM Combined TNSS, Mean [3]: −25.75%
- Percent Change from Baseline in AM and PM Combined TNSS, Median [3]: −23.81%
- Percent Change from Baseline in PM TNSS, LS Mean [3]: −25.72%
- Percent Change from Baseline in PM TNSS, Mean [3]: −25.18%
- Percent Change from Baseline in PM TNSS, Median [3]: −20.45%
- Change from Baseline in AM and PM Combined TNSS, LS Mean (Day 7, Intent-to-Treat Population, ANCOVA model): −5.06
- Change from Baseline in AM and PM Combined TNSS, LS Mean (Day 7, Per-Protocol Population): −4.98
- Change from Baseline in AM and PM Combined TNSS, Mean (Day 7, Per-Protocol Population): −4.99
- Change from Baseline in AM and PM Combined TNSS, Median (Day 7, Per-Protocol Population): −5.00
- Percent Change from Baseline in AM and PM Combined TNSS, LS Mean (Day 7, Per-Protocol Population): −25.63%
- Percent Change from Baseline in AM and PM Combined TNSS, Mean (Day 7, Per-Protocol Population): −25.57%
- Percent Change from Baseline in AM and PM Combined TNSS, Median (Day 7, Per-Protocol Population): −23.81%
- Change from Baseline in AM TNSS, LS Mean [4]: −2.40
- Change from Baseline in AM TNSS, Mean [4]: −2.36
- Change from Baseline in AM TNSS, Median [4]: −1.67
- Change from Baseline in AM and PM Combined TNSS, Mean [4]: −4.55
- Change from Baseline in AM and PM Combined TNSS, Median [4]: −3.70
- Change from Baseline in PM TNSS, LS Mean [4]: −2.24
- Change from Baseline in PM TNSS, Mean [4]: −2.18
- Change from Baseline in PM TNSS, Median [4]: −2.00
- Percent Change from Baseline in AM TNSS, LS Mean [4]: −25.01%
- Percent Change from Baseline in AM TNSS, Mean [4]: −24.67%
- Percent Change from Baseline in AM TNSS, Median [4]: −19.23%
- Percent Change from Baseline in AM and PM Combined TNSS, LS Mean [4]: −23.87%
- Percent Change from Baseline in AM and PM Combined TNSS, Mean [4]: −23.38%
- Percent Change from Baseline in AM and PM Combined TNSS, Median [4]: −20.97%
- Percent Change from Baseline in PM TNSS, LS Mean [4]: −22.44%
- Percent Change from Baseline in PM TNSS, Mean [4]: −21.91%
- Percent Change from Baseline in PM TNSS, Median [4]: −21.95%
- Change from Baseline in AM and PM Combined TNSS, LS Mean (Day 8, Intent-to-Treat Population, ANCOVA model): −4.64
- Change from Baseline in AM and PM Combined TNSS, LS Mean (Day 8, Per-Protocol Population): −4.61
- Change from Baseline in AM and PM Combined TNSS, Mean (Day 8, Per-Protocol Population): −4.59
- Change from Baseline in AM and PM Combined TNSS, Median (Day 8, Per-Protocol Population): −3.70
- Percent Change from Baseline in AM and PM Combined TNSS, LS Mean (Day 8, Per-Protocol Population): −23.68%
- Percent Change from Baseline in AM and PM Combined TNSS, Mean (Day 8, Per-Protocol Population): −23.43%
- Percent Change from Baseline in AM and PM Combined TNSS, Median (Day 8, Per-Protocol Population): −20.97%
- Change from Baseline in AM TNSS, LS Mean [5]: −2.43
- Change from Baseline in AM TNSS, Mean [5]: −2.38
